Reference: PMC2777267, “Crystal Structures of Wzb of Escherichia coli and CpsB of Streptococcus pneumoniae, Representatives of Two Families of Tyrosine Phosphatases that Regulate Capsule Assembly” (Journal of Molecular Biology, 2009)

What was measured:
[1] = target: T1, Cps4B (Streptococcus pneumoniae, UniProt Q9AHD4); assay: absorbance at […] nm; type: biochemical; parameters: gene cpsB; recombinant, produced as described earlier; PHP-fold metal-dependent phosphatase with three active-site metals; 1 molecule per asymmetric unit; details: 25 mM Tris-Cl pH 8.0, 50 mM NaCl, 2.5 mM pNPP, room temperature; 0.5 mM Cu2+, Co2+ or Mn2+ added
T1 sequence (Q9AHD4 whole entry, looked up): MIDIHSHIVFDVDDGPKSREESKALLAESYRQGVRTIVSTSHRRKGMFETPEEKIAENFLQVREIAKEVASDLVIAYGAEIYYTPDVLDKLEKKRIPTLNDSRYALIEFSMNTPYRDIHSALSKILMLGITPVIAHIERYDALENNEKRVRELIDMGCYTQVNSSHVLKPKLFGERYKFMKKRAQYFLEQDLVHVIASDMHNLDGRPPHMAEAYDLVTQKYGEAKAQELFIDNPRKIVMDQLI

[2] = target: T1, Cps4B; parameters: gene cpsB; details: active site, bound to three metals, Arg139 and Arg206; soak up to 50 mM phosphate

| SMILES | absorbance at 405 nm [1] | X-ray crystal structure, 2.2 A, phosphate soak [2] |
| --- | --- | --- |
| O=[N+]([O-])c1ccc(OP(=O)(O)O)cc1 [para-nitrophenylphosphate] | it is a relatively poor catalyst with artificial substrate para-nitrophenylphosphate (pNPP) |  |
| O=P(O)(O)O [phosphate] |  | The phosphate is tightly bound to the active site by a multitude of interactions |
